Values quoted from earlier work in US20250134097A1, “PERSISTENT SANITIZER” (priority 2020, published 2025).

What was measured:
microbes = details: benzalkonium chloride at 0.1-0.2%
Adenovirus = details: in vitro; concentration-dependent; includes non-enveloped virus

Substance: Benzalkonium chloride
- antimicrobial activity (microbes): Broad antimicrobial activity
- antiviral activity (Adenovirus): some antiviral activity including non-enveloped activity
